Results from ChEMBL document CHEMBL1201862, “PubChem BioAssay data set” (2004).
Active and inactive are the calls of the source. For most assays here, no stated cut-off is given here; in the data, actives have a measured IC50 and inactives only a lower limit.

What was measured:
[1] = molecular target: Tumor necrosis factor (Homo sapiens, UniProt P01375); experiment: TNFa-triggered NF-kB activation inhibitors, SAR follow-up, cell-based, revised (AID 2337); format: functional
[2] = molecular target: Nucleotide-binding oligomerization domain-containing protein 1 (Homo sapiens, UniProt Q9Y239); experiment: NOD1 signaling inhibitors, SAR follow-up, revised (AID 2333); format: functional
[3] = test system: HEK293; experiment: cells; conditions: Homo sapiens;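 further: cells exposed to compound for 14 hours overnight before viability readout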
[4] = molecular target: Keap1/Nrf2 (Homo sapiens, UniProt Q14145); experiment: Keap1-Nrf2 protein-protein interaction inhibitors, dose response, biochemical, fluorescence polarization, cherry-picked samples (AID 588683)
[5] = test system: HeLa; experiment: HeLa cell cytotoxicity, dose response, cytotoxicity control for MITF activator project, CellTiter-Glo luminescence, cherry-pick samples (AID 540259); format: functional, cell-based; conditions: Homo sapiens

Sequence of Tumor necrosis factor (P01375 whole entry, the tested form may be a part): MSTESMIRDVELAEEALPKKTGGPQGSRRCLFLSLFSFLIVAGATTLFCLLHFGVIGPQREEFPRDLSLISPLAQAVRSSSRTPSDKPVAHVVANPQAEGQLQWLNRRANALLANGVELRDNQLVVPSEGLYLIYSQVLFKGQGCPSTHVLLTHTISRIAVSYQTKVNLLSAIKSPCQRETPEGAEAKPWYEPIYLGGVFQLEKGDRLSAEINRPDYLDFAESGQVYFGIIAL
Sequence of Keap1/Nrf2 (Q16236 whole entry): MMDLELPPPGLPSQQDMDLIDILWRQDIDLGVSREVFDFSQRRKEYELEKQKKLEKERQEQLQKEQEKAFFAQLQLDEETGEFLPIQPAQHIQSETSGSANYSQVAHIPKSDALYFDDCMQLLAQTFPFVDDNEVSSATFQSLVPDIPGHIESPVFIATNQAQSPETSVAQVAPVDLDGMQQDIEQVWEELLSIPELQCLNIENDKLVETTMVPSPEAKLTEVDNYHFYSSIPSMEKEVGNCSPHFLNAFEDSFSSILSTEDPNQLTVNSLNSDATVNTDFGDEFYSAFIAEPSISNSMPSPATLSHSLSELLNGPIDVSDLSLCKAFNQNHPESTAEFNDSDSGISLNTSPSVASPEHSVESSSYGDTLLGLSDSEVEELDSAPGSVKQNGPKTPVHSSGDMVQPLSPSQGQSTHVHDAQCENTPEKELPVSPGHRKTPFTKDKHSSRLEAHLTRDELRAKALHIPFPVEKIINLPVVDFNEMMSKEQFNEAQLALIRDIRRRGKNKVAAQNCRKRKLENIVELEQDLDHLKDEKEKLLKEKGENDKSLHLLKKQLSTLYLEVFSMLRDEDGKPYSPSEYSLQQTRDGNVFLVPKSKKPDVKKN
Sequence of Keap1/Nrf2 (Q14145 whole entry): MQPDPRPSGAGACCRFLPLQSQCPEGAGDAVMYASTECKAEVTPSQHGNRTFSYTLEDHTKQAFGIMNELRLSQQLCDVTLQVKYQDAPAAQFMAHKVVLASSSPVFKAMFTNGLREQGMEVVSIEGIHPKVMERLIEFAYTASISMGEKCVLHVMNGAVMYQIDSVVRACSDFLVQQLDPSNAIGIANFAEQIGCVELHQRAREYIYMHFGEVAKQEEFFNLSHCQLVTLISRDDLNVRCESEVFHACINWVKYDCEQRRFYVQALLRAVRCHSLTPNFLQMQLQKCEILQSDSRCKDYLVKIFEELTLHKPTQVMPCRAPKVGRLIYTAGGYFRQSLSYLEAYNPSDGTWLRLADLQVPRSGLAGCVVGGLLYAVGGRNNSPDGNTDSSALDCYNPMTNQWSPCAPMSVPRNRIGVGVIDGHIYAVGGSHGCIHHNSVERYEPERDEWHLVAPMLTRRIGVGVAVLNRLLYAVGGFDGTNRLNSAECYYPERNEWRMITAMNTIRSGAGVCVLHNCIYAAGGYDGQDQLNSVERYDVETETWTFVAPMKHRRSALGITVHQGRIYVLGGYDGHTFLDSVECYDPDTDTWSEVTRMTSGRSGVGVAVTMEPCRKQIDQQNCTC
Sequence of Nucleotide-binding oligomerization domain-containing protein 1 (Q9Y239 whole entry, the tested form may be a part): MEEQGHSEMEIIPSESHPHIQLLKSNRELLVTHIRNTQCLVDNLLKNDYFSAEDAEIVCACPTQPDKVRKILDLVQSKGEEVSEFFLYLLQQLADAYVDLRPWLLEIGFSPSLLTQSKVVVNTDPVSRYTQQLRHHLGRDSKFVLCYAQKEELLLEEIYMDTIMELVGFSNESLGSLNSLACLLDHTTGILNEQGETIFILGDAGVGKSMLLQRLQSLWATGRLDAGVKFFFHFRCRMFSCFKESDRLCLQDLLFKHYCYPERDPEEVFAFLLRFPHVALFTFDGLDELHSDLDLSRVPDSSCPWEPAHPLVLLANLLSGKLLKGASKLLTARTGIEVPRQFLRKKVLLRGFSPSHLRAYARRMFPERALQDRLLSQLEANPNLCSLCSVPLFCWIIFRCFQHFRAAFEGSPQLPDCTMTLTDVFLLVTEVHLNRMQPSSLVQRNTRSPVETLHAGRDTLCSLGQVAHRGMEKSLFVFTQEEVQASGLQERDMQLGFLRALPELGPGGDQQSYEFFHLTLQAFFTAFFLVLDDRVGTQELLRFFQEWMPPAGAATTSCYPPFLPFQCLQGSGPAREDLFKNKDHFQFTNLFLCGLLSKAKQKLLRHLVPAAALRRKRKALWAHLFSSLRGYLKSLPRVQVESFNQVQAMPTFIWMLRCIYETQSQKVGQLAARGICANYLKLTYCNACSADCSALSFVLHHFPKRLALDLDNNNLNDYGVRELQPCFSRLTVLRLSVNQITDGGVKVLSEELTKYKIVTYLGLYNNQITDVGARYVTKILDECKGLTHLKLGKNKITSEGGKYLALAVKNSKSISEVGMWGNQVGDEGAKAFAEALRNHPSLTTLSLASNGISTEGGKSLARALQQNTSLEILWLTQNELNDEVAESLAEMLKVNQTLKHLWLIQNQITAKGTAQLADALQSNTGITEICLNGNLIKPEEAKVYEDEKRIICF

SMILES: COc1ccc(N2CCN(S(=O)(=O)c3ccc4c(c3)CC(C)N4C(=O)C3CC3)CC2)cc1 (stereo not given)
- IC50 [1]: 3.85 µM (active)
- IC50 [2]: 0.506 µM (active)
- IC50 [3]: > 20 µM (inactive)

SMILES: Cc1cc[n+](-c2[n-]c(=O)sc2C=NNC(=S)Nc2ccccc2)cc1C
- AC50 [4]: > 52 µM (inactive)

SMILES: CCc1ccc(C(=O)NC2CCCCC2)s1
- AC50 [5]: 87.6 µM (active)
